Laboratory results as given in patent US20090209619A1, “Depression of herg k+ channel function in mammallan cells and applications to the control of cancer cells division” (priority 2004, published 2009).
Marks after values point to notes of the source that are not given here.

Key:
[1] = test system: MCF-7; test: Tumor growth in nude mice inoculated subcutaneously with MCF-7; settings: for tumor volume, Day 7 / tumor volume, Day 1: MCF-7 tumor in nude mice, 5 μg/tumor single intratumoral injection; for tumor volume, Day 7: 7 days after treatment; for tumor volume, Day 1: day of treatment; for % changes of tumor volume over control: MCF-7 tumor, 5 μg/tumor, day 7
[2] = test system: SHSY5Y; test: Cancer cell proliferation by population doubling time (PDT), SHSY5Y; assay type: cell-based, human; settings: blocker 1 μM; for population doubling time: 30 min in serum-free medium, cells counted 5 h and 48 h after seeding
Description: (§1) The human breast cancer cell lines MCF-7, BT132, and Sk-Br-3, human neuroblastoma cell line SHSY5Y, murine atrial tumor cell line HL-1 were used. These cell are known to express HERG channels. For chemical blocking of HERG conductance, tumor cells were incubated with dofetilide (1 μM), the anti-arrhythmic agent E4031 (1 μM) or cisapride (1 μM) for 30 min in serum-free medium. Control experiments wherein no dofetilide, no E-4031 and no cisapride was used were also performed.
(§2) Cell proliferation was assessed by characterizing the log phase growth with population doubling time (PDT) calculated by the equation: 1/(3.32*(log NH−log NI)/(t2−t1)), where NH is the number of cells harvested at the end of the growth period (at time t2) and NI is the number of cells at 5 hours (t1) after seed. Cells were counted by a flow cytometer (EPICS XL; Beckman Coulter Canada, Inc.), and the number obtained at 5 h (t1) after seeding was taken as an initial cell number (NI), and the number at 48 h (t2) after seeding was taken as an endpoint number (NH). The longer the PDT is, the slower the growth is.
(§3) In experiments involving interference RNA, in this case siRNA, the cells were transfected with siRNA using lipofectamine-2000 as a carrier to deliver the siRNA to the cells, according to the manufacturer's protocols. The sequence of our siRNA targeting HERG position 3498 bp is […] (SEQ ID NO:1). A negative control targeting the following sequence: […] (SEQ ID NO:2) has been used. The siRNA is designed as cassette using U6 as the promoter and its efficacy was validated by its ability to decrease HERG mRNA by around 78% determined by real-time RT-PCR. SiRNA targeting the following 2 target sequences: […] (SEQ ID 03) (starting at 255 bp) and […] (SEQ ID 04) (starting at 2609 bp) has also been tested. As an siRNA cassette is used, these sequences (SEQ ID 01-04) are also DNA sequences that are injected in the cells to produce in situ the siRNA that will interfere with expression of the HERG gene.

[3] = test system: Sk-Br-3; test: Cancer cell proliferation by population doubling time (PDT), Sk-Br-3; assay type: cell-based, human; settings: blocker 1 μM; for population doubling time: 30 min in serum-free medium, cells counted 5 h and 48 h after seeding
Description: as §1, §2, §3

[4] = test system: MCF-7; test: Cancer cell proliferation by population doubling time (PDT), MCF-7; assay type: cell-based, human; settings: blocker 1 μM; for population doubling time: 30 min in serum-free medium, cells counted 5 h and 48 h after seeding
Description: as §1, §2, §3

[5] = test system: BT132; test: Cancer cell proliferation by population doubling time (PDT), BT132; assay type: cell-based, human; settings: blocker 1 μM; for population doubling time: 30 min in serum-free medium, cells counted 5 h and 48 h after seeding
Description: as §1, §2, §3

[6] = test system: HL-1; test: Cancer cell proliferation by population doubling time (PDT), HL-1; assay type: cell-based, murine; settings: blocker 1 μM; for population doubling time: 30 min in serum-free medium, cells counted 5 h and 48 h after seeding
Description: as §1, §2, §3

[7] = test system: SK-BR-3; test: Tumor growth in nude mice inoculated subcutaneously with SK-BR-3; settings: for tumor volume, Day 7 / tumor volume, Day 1: Sk-Br-3 tumor in nude mice, 5 μg/tumor single intratumoral injection; for tumor volume, Day 7: 7 days after treatment; for tumor volume, Day 1: day of treatment; for % changes of tumor volume over control: Sk-Br-3 tumor, 5 μg/tumor, day 7
[8] = test system: MCF-7 cells; settings: cited from earlier work
[9] = target: T1, EAG (Homo sapiens, UniProt O95259); settings: extracellular perfusion; cited from earlier work
T1 sequence (O95259 1-989): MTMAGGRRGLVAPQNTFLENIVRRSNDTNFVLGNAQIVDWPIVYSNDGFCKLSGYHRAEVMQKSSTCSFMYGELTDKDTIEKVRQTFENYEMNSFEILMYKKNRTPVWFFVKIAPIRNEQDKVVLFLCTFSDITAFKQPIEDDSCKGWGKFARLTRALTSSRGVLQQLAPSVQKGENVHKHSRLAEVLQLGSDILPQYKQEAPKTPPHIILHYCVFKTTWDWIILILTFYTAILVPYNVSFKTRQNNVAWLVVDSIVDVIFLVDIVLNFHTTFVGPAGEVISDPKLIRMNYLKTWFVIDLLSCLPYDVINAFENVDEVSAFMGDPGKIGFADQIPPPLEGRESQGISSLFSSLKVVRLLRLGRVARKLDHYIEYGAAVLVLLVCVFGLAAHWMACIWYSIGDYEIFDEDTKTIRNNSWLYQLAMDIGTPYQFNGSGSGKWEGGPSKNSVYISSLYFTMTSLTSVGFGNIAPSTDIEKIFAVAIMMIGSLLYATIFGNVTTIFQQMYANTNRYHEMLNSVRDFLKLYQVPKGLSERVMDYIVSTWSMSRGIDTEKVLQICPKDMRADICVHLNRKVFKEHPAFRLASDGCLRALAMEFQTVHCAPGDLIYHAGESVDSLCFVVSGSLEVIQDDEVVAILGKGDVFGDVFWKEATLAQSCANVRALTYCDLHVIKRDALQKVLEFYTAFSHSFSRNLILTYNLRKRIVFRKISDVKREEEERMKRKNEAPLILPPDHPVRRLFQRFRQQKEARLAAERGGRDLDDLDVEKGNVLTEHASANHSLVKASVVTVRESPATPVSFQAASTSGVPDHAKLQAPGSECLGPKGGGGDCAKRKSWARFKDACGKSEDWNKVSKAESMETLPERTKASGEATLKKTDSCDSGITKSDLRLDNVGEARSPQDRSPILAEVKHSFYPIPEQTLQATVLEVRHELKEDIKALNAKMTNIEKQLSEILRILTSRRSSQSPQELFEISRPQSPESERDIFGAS

Row | Compound | tumor volume, Day 7 [1] | tumor volume, Day 1 [1] [cm^3] | % changes of tumor volume over control [1] [%] | % changes of population doubling time over control [2] [%] | population doubling time [2] | % changes of population doubling time over control [3] [%] | population doubling time [3] | % changes of population doubling time over control [4] [%] | population doubling time [4] | % changes of population doubling time over control [5] [%] | population doubling time [5] | % changes of population doubling time over control [6] [%] | population doubling time [6] | tumor volume, Day 7 [7] | tumor volume, Day 1 [7] [cm^3] | % changes of tumor volume over control [7] [%] | inhibition of cell proliferation ([8]; extracellular perfusion, cell line not given) [%] | inhibition of EAG current [9] [%] | effect on growth/proliferation of MCF-7 human breast cancer cells [8]
1 | Cc1cccc(CCN2CCC(C(=O)c3ccc(NS(C)(=O)=O)cc3)CC2)n1 [E-4031] | 3.7 ± 0.8^+ cm^3 | 3.5 ± 0.6 | −30 | 70 | 101.8 ± 11.5* hours | 98 | 165.3 ± 15.2* hours | 43 | 64.9 ± 11.5* hours | 48 | 80.5 ± 8.2* hours | 37 | 93.5 ± 10.0* hours | 4.1 ± 0.6*^+ cm^3 | 2.1 ± 1.0 | −28 | – | – | –
2 | COc1cc(N)c(Cl)cc1C(=O)NC1CCN(CCCOc2ccc(F)cc2)CC1OC (stereo not shown) [Cisapride, cisapride] | 3.0 ± 0.4^+ cm^3 | 3.2 ± 0.5 | −42 | 57 | 92.0 ± 8.3* hours | 114 | 174.3 ± 17.7* hours | 58 | 71.7 ± 7.3* hours | 62 | 88.1 ± 9.0* hours | 47 | 100.3 ± 9.8* hours | 3.1 ± 0.3^+ cm^3 | 2.4 ± 1.3 | −45 | – | – | –
3 | COc1ccc(CCN2CCC(Nc3nc4ccccc4n3Cc3ccc(F)cc3)CC2)cc1 [astemizole] | – | – | – | – | – | – | – | – | – | – | – | – | – | – | – | – | ~23 | ~20 | –
4 | Cc1cc(N)c2ccccc2[n+]1CCCCCCCCCC[n+]1c(C)cc(N)c2ccccc21 [dequalinium] | – | – | – | – | – | – | – | – | – | – | – | – | – | – | – | – | – | – | inhibitory effects
5 | CCCCc1oc2ccccc2c1C(=O)c1cc(I)c(OCCN(CC)CC)c(I)c1 [amiodarone] | – | – | – | – | – | – | – | – | – | – | – | – | – | – | – | – | – | – | inhibitory effects
6 | CN(CCOc1ccc(NS(C)(=O)=O)cc1)CCc1ccc(NS(C)(=O)=O)cc1 [Dofetilide, dofetilide] | – | – | – | 59 | 95.2 ± 10.2* hours | 128 | 184.0 ± 16.6* hours | 55 | 70.4 ± 6.2* hours | 56 | 84.8 ± 7.5* hours | 30 | 85.5 ± 9.2 h | – | – | – | – | – | –
